{
  "source": "patent US4305950A",
  "about": "“Pharmaceutical agent containing amino derivatives of 2-methyl-5-(2-hydroxystyryl)-1,3,4-thiadiazole” (BASF Aktiengesellschaft, priority 1978, dated 1981)",
  "key": {"[1]": {"biological_target": "T1, cardiac beta-1-receptors (Felis catus, UniProt Q9TST6)", "T1 construct": "in narcotized cats (weight 2-4 kg); from tissue; host or cells: heart of the living narcotized cat (in vivo)", "T1 sequence (Q9TST6 whole entry)": "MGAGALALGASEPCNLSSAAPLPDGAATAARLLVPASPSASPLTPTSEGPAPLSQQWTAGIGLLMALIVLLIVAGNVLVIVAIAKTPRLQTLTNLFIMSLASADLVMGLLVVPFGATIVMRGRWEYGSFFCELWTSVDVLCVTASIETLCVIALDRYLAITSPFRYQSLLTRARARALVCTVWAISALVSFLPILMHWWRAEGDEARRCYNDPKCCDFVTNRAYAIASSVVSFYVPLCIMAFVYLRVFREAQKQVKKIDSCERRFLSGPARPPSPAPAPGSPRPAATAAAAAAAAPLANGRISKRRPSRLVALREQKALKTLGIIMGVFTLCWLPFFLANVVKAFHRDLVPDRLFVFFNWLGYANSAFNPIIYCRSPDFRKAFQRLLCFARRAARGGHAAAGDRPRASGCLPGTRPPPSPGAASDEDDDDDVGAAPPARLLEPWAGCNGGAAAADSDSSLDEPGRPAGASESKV", "assay": "Beta-sympatholytic action: inhibition of isoproterenol-induced tachycardia in narcotized cats", "type": "in vivo", "conditions": "for Beta-sympatholytic action, R.A. (relative activity): Propranolol = 1.00, cats, intravenous; for factor by which doses blocking cardiac beta-1-receptors are lower than those of propranolol: compared to propranolol", "excerpt": "The following test methods were used:\nBeta-sympatholytic agents inhibit such tachycardia.\n^(1) Inhibition of isoproterenolinduced tachycardia in cats under\nhexobarbital narcosis. Intravenous administration.\n^(2) Dose (mg/kg) which inhibits the isoproterenolinduced tachycardia"}, "[2]": {"tested_on": "female NMRI mice", "type": "in vivo", "conditions": "for Therapeutic range, relative: mouse, in vivo"}},
  "data": [
    {"smiles": "Cc1nnc(C=Cc2ccccc2OCC(O)CNC(C)C)s1", "note": "(stereo not shown) [Example 1, 2-Methyl-5-[2-(2-hydroxy-3-isopropylamino-propoxy)-styryl]-1,3,4-thiadiazol]", "values": [
      {"measurement": "Beta-sympatholytic action, R.A. (relative activity)", "setting": "[1]", "value": 14.10},
      {"measurement": "Therapeutic range, relative", "setting": "[2]", "value": 10.84}
    ]},
    {"smiles": "Cc1nnc(C=Cc2ccccc2OCC(O)CNC2CC2)s1", "note": "(stereo not shown) [Example 2, 2-Methyl-5-[2-(2-hydroxy-3-cyclopropylamino-propoxy)-styryl]-1,3,4-thiadiazole]", "values": [
      {"measurement": "Beta-sympatholytic action, R.A. (relative activity)", "setting": "[1]", "value": 11.75},
      {"measurement": "factor by which doses blocking cardiac beta-1-receptors are lower than those of propranolol", "setting": "[1]", "value": 12},
      {"measurement": "factor by which the therapeutic range is increased, compared to propranolol", "setting": "[2]", "value": 7.6},
      {"measurement": "Therapeutic range, relative", "setting": "[2]", "value": 7.55}
    ]},
    {"smiles": "Cc1nnc(C=Cc2ccccc2OCC(O)CNC(C)(C)C)s1", "note": "(stereo not shown) [Example 3, 2-Methyl-5-[2-(2-hydroxy-3-tert.-butylamino-propoxy)-styryl]-1,3,4-thiadiazole]", "values": [
      {"measurement": "Beta-sympatholytic action, R.A. (relative activity)", "setting": "[1]", "value": 25.22},
      {"measurement": "ED50", "setting": "[1]; cat, cats under hexobarbital narcosis, intravenous administration, read-out: Beta-sympatholytic action, ED 50% (dose which inhibits the isoproterenol-induced tachycardia by 50%)", "value": 5.59, "unit": "µg/kg"},
      {"measurement": "factor by which doses blocking cardiac beta-1-receptors are lower than those of propranolol", "setting": "[1]", "value": 25},
      {"measurement": "Therapeutic range, relative", "setting": "[2]", "value": 13.73}
    ]},
    {"smiles": "C#CC(C)NCC(O)COc1ccccc1C=Cc1nnc(C)s1", "note": "(stereo not shown) [Example 7, 2-Methyl-5-[2-(2-hydroxy-3-(but-1-ynyl-3-amino)-propoxy)-styryl]-1,3,4-thiadiazole]", "values": [
      {"measurement": "Beta-sympatholytic action, R.A. (relative activity)", "setting": "[1]", "value": 12.70},
      {"measurement": "factor by which the therapeutic range is increased, compared to propranolol", "setting": "[2]", "value": 30.7},
      {"measurement": "Therapeutic range, relative", "setting": "[2]", "value": 30.68}
    ]}
  ]
}
